In paper PMC11788587, “Validating Low‐Dose Iohexol as a Marker for Glomerular Filtration Rate by In Vitro and In Vivo Studies” (Clinical and Translational Science, 2025):

Legend:
hOAT3 = target: T1, hOAT3 (Homo sapiens, UniProt Q8TCC7); assay: Substrate assessment: iohexol uptake in 293 cells expressing hOAT3 vs control; assay type: in vitro ADME; conditions: 10 μM iohexol, median (95% CI)
T1 construct: expressed in transfected cells; host or cells: HEK-293 (293) cells, pEBTetD plasmid, doxycycline-induced
T1 sequence (Q8TCC7 1-542): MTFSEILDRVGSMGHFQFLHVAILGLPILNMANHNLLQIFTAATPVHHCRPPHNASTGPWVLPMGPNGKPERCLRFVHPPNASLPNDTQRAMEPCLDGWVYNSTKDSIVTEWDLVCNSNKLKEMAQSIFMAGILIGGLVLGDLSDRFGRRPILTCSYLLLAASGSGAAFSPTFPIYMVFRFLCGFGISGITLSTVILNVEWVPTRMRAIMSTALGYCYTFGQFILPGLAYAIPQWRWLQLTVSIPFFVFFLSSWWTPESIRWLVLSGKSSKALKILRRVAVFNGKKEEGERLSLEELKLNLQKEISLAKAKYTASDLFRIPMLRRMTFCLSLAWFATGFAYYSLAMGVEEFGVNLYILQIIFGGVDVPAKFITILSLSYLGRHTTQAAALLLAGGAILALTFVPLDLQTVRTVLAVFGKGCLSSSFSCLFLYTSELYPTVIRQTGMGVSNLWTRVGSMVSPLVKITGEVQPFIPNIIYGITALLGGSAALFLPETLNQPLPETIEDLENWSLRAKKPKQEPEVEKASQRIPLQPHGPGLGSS
Source text: (§1) We characterized the inhibitory potential of iohexol on major drug transporters recommended by regulatory agencies, which were previously assessed in a clinical transporter phenotyping cocktail study. These transporters include hOAT1, hOAT3, hOCT1, hOCT2, hMATE1, hMATE2K, human organic anion transporter polypeptides (hOATP)1B1, hOATP1B3, and human multidrug resistance protein (hMDR)1. Additionally, we investigated whether iohexol is a substrate for any of the renal transporters among these, including hOAT1/3, hOCT1/2, and hMATE1/2K. Cell‐based uptake assays were used to assess the activities of hOAT1/3, hOCT1/2, hMATE1/2K, and hOATP1B1/1B3. Inside‐out membrane vesicle uptake assays were used to evaluate the activity of hMDR1.
(§2) For substrate assessments, iohexol was incubated with stably transfected HEK‐293 cells expressing one of the following transporters: hOAT1, hOAT3, hOCT1, hOCT2, hMATE1, or hMATE2K, as well as with control cells lacking transporter expression. Stably transfected cell lines containing pEBTetD plasmids with wild‐type human transporter cDNAs were generated as previously described. Transporter expression was induced by adding 1 μg/mL doxycycline to the growth medium for at least 20 h. Iohexol would be considered a substrate for these transporters if: (1) the ratio of iohexol uptake in cells expressing the transporter to that in control cells was ≥ 2, and (2) a known inhibitor of the transporter reduced iohexol uptake to ≤ 50% at concentrations ≥ 10 times its inhibition constant or half‐maximal inhibitory concentration.
(§3) Uptake assays were performed using stably transfected 293 cells, with or without the expression of one of the following transporters: hOAT1, hOAT3, hOCT1, hOCT2, hMATE1, or hMATE2K, as previously described.^1
(§4) For the substrate assessment, cells were incubated with 10 µM iohexol for 10 minutes and 30 minutes for each transporter. Inhibition assays were performed using specific standard substrates for each transporter: 10 µM para-aminohippuric acid (PAH) for hOAT1, 3 µM estrone-3-sulfate (E3S) for hOAT3, 50 µM metformin for hOCT1, 5 µM metformin for hOCT2, and 3 µM 1-methyl-4-phenylpyridinium (MPP+) for hMATE1 and hMATE2K. […]
(§5) R version 4.2.1 (R Foundation for Statistical Computing, Vienna, Austria) was used for statistical evaluations and data visualization. The data analysis approach for the in vitro study was detailed by Hsin CH et al..^1 In brief, for transport assays, the initial uptake rate was calculated by normalizing the substrate concentration to both the protein concentration and the incubation time for each dish or well. The transporter-mediated uptake rate (net uptake) was determined by performing an element-wise subtraction of uptake rates from different conditions. […]

hMATE1 = target: T2, hMATE1 (Homo sapiens, UniProt Q96FL8); assay: Substrate assessment: iohexol uptake in 293 cells expressing hMATE1 vs control; assay type: in vitro ADME; conditions: 10 μM iohexol, median (95% CI)
T2 construct: expressed in transfected cells; host or cells: HEK-293 (293) cells, pEBTetD plasmid, doxycycline-induced
T2 sequence (Q96FL8 1-570): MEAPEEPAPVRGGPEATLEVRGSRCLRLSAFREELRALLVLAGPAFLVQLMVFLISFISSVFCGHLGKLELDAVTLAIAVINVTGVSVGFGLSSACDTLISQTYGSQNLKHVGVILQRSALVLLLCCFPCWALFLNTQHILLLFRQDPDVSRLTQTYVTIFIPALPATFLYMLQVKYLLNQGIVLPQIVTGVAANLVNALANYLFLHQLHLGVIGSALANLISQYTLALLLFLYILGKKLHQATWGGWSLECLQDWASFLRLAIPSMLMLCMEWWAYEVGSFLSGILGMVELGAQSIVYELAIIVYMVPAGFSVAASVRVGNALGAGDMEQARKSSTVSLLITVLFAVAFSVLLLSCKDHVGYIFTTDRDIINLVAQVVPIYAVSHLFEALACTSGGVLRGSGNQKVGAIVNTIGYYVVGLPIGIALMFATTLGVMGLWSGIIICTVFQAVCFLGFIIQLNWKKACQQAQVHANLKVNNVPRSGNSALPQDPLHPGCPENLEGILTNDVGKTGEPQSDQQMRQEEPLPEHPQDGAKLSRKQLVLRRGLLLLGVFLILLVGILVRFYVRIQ
Source text: as §1, §2, §3, §4, §5

Differences in intracellular accumulation (expression on minus off) (hOAT3; 10 minutes): 0.6 (0.1 to 2) pmol/mg protein
Uptake ratio (transporter-expressing vs non-expressing cells) (hOAT3; 10 minutes): 1.1 (1 to 1.4)
Differences in intracellular accumulation (expression on minus off) (hOAT3; 30 minutes): 0.89 (0.19 to 1.5) pmol/mg protein
Uptake ratio (transporter-expressing vs non-expressing cells) (hOAT3; 30 minutes): 1.2 (1.1 to 1.3)
Differences in intracellular accumulation (expression on minus off) (hMATE1; 10 minutes): 0.36 (-1.2 to 1.7) pmol/mg protein
Uptake ratio (transporter-expressing vs non-expressing cells) (hMATE1; 10 minutes): 1.1 (0.84 to 1.2)
Differences in intracellular accumulation (expression on minus off) (hMATE1; 30 minutes): -0.67 (-1.6 to 0.61) pmol/mg protein
Uptake ratio (transporter-expressing vs non-expressing cells) (hMATE1; 30 minutes): 0.92 (0.78 to 1.1)
Structure (SMILES): CC(=O)N(CC(O)CO)c1c(I)c(C(=O)NCC(O)CO)c(I)c(C(=O)NCC(O)CO)c1I (centres unmarked) [iohexol]
